These results are taken from patent US20260130847A1, “INGESTIBLE IN VIVO-ASSEMBLING DRUG RELEASE FORMULATIONS AND METHODS” (Massachusetts Institute of Technology, priority 2022, published 2026).

The nature of data set [1]: Encapsulated lumefantrine pharmacokinetics. The data set is classed as in vivo. The note with it: pigs, 960 mg lumefantrine. The method, then:
All animal studies were performed only after MIT CAC review and approval and under veterinarian supervision. Pigs were dosed with the following treatments via endoscopy: free lumefantrine, lumefantrine encapsulated in alginate hydrogels, and lumefantrine encapsulated in LIFT hydrogels (n=3 each). All pigs were dosed with a total of 960 mg lumefantrine. For free lumefantrine, drug powder was weighed and placed across three gelatin capsules. For hydrogel formulations, lumefantrine powder was suspended in polymer solution (0.5% w/v alginate or 0.5% w/v alginate/5% 4-arm PEG-maleimide), mixed, and administered after crosslinker solution (200 mM CaCl2/10 mM DMSA). Blood was sampled via an installed ear catheter at the indicated time points, and lumefantrine area under the curve was calculated by the trapezoidal rule.
Plasma lumefantrine and desbutyl lumefantrine were separated via high pressure liquid chromatography (HPLC) and quantified with an Agilent 6495A electrospray ionization (ESI) triple quadrupole mass spectrometer (Agilent Technologies, Santa Clara, CA). Samples were introduced to the system with a 5 μL injection volume. Chromatography was performed on an Acquity BEH C18 column (2.1×50 mm, dP 1.8 μm, Waters, Milford, MA), heated to 50° C., with a binary mobile phase composed of 0.1% formic acid in water (v/v, A) and 5% tetrahydrofuran in methanol (v/v, B). […] Nozzle voltage was set to 1500 V and capillary voltage was set to 3500 V. Dynamic multiple reaction-monitoring was used to quantify analytes. Lumefantrine was monitored at transitions 528.16 to 510.00 m/z at 28 collision energy (CE), with a qualifier transition from 528.16 to 383.00 m/z (40 CE). Desbutyl lumefantrine was monitored at 472.1 to 454.1 m/z (20 CE) and qualified from 472.1 to 346 m/z (36 CE). Halofantrine was used as an internal standard and quantified with the 500.18 to 142.10 m/z transition (24 CE) and qualified with the 500.18 to 100.10 m/z transition. […]

A further data set has as its system cellulase. Briefly: Cellulase activity after acid exposure in vitro. The data set is classed as biochemical. The following applies: short incubations in gastric acid.
The target in another data set is T1, lactase (Aspergillus oryzae, UniProt Q2UCU3).
T1 construct: purchased MilliporeSigma G5160
T1 sequence (Q2UCU3 19-1005): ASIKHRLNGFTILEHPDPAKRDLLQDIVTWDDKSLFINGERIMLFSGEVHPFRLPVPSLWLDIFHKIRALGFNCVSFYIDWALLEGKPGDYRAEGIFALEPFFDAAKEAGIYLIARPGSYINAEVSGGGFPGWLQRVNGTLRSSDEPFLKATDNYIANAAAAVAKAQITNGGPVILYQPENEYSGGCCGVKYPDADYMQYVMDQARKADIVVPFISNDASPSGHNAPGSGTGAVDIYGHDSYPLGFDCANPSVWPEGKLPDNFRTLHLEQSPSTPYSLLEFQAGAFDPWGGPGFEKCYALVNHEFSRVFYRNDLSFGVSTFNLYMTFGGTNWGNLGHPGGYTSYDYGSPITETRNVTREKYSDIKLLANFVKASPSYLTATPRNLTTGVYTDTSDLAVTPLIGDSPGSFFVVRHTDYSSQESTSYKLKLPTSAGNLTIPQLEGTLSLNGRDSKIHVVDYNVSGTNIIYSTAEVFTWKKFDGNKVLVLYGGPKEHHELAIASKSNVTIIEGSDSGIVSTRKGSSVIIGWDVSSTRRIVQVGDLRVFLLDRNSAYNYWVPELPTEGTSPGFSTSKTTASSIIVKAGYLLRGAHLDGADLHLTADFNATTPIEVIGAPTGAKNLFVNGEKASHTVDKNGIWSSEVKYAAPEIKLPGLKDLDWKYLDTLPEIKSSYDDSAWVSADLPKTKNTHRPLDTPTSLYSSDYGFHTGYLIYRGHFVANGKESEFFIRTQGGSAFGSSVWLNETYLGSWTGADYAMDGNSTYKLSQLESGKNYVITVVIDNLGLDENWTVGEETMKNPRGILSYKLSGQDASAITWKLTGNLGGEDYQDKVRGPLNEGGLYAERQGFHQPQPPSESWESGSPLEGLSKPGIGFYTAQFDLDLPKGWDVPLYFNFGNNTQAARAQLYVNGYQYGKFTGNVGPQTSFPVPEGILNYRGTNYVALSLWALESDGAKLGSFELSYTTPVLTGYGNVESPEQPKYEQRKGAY
Briefly: Lactase activity after dithiol molecule treatment (ONPG). The data set is classed as biochemical. The note with it: 2.5, 5, or 10 mM, 37° C., 20 min. The method, then: Lactase (18 μg, 60 μL) was added to DMSA or PEG-dithiol to a final DMSA/PEG-dithiol concentration of 2.5, 5, or 10 mM. Treatments were incubated at 37° C. for 20 min. Lactase activity was assayed by adding 60 μL of 5 mM ONPG and incubation for 1 min at room temperature. After, 300 μL of 1 M Na2CO3 was added to stop the reaction, and the absorbance of the solution was read at λ=420 nm.

One may read the AUC as the area under the concentration-time curve, a measure of exposure.

As for `CCCCN(CCCC)CC(O)c1cc(Cl)cc2c1-c1ccc(Cl)cc1/C2=C/c1ccc(Cl)cc1` (centres unmarked) [free lumefantrine, Lumefantrine], the exposure (AUC) in data set [1] (pig, other: via endoscopy, plasma, n=3, trapezoidal rule, read-out: area under the curve (AUC) of released drug) stood at 14900 ng·h/mL. In addition, the Cmax in data set [1] (pig, other: via endoscopy, plasma, n=3, read-out: maximum observed drug concentration (Cmax)) was 901 ± 197 ng/mL. Also, the “time of peak plasma drug concentration post-administration” value in data set [1] (n=3) fell in the range of 5 to 7 h.
On to cellulase, for which the “activity of free cellulase” value with cellulase is recorded as “significantly degraded enzyme activity”.
Regarding `O=C(O)C(S)C(S)C(=O)O` (centres unmarked) [DMSA, dimercaptosuccinic acid], the “lactase activity after exposure to dithiol compound” value at lactase was “attenuated lactase activity”.
